According to patent US20080261241A1, “Targeted ubiquitination of proteins and screening methods using a new class of ubiquitin ligase proteins” (INSTITUT PASTEUR, priority 2007, published 2008):
Peptide text beside a SMILES is read from it. * marks the point of attachment. Cbz = O=C(OCc1ccccc1)*

Tested on: proteasome
Experiment: Proteasome inhibition: Ste7 disappearance in MG132-permeable erg6 mutant
Assay type: cell-based, Saccharomyces cerevisiae
Settings: MG132 100 μM, 2 h
Description: To test if the IpaH-mediated disappearance of Ste7 required proteasome function, a yeast strain carrying the cim5-1 allele encoding a component of the 26-S proteasome that is functional at 25° C. but not at 37° C. (Ghislain et al., 1993) was used. […] (FIG. 3A). […] Thus, the disappearance of Ste7 promoted by IpaH9.8 is proteasome-dependent.
Standard media and techniques were used for transformation, maintenance, and growth of yeast (Guthrie C, 1991). Halo assays were performed as described (Hoffman et al., 2002) using disks impregnated with 15 μg of α-factor. erg6 ? yeast were transformed with plasmids encoding IpaH9.8 or IpaH9.8-C337A and grown in selective media containing 1% raffinose to mid log phase. Following addition of MG132 (100 μM) and galactose (2%), cultures were incubated for 2 h and cell extracts were prepared as described (Wang et al., 2003). β-Galactosidase assays were performed as described (Guarente, 1983).

**Q.** For `CC(C)C[C@@H](C=O)NC(=O)[C@H](CC(C)C)NC(=O)[C@H](CC(C)C)NC(=O)OCc1ccccc1` [MG132] (Cbz-Leu-Leu-Leu-aldehyde), which “disappearance of Ste7 provoked by IpaH9.8” value is on record?
**A.** prevented the disappearance of Ste7
